Data set [1] is described as follows: Inhibition (%) of ABTS radical generation. The data set is classed as biochemical. Conditions: concentration was 0.005 mg/mL (footnote). The protocol:
All reagents used in this assay were prepared in phosphate buffered saline (PBS, 10 mM, pH 7.4). Sample solutions were prepared in PBS.
[…] Reaction was triggered by the addition of 120 μL of 10 mM hydrogen peroxide. Absorbance data of the reaction mixture were recorded after 10 min using a spectrophotometer set at 734 nm. Quercetin was used as a reference antioxidant.

A short description of data set [2]: Total reducing power (pre-formed ABTS radical). The data set is classed as biochemical. Conditions: concentration was 0.005 mg/mL (footnote). On the procedure: ABTS radical was generated by mixing 5 mL of an aqueous ABTS solution (7 mM) and 88 μL of a potassium persulfate solution (140 mM), followed by the standing in the dark for 6 h. This stock solution (1.1 mL) was diluted to 90 mL with PBS (pH 7.4) and the absorbance adjusted to 0.83. […] Absorbance at 734 nm was measured after 10 min. Quercetin was used as a reference antioxidant. Total reducing power (TRP, %) was calculated using the following equations: […]+PBS(%)=[(Abs0 min-Abs10 min)/Abs0 min]*100 TRPSample=([…]

Data set [3] in a line: Oxygen radical absorbance capacity (ORAC), β-carotene retention. The data set is classed as biochemical. The note with it: concentration was 0.005 mg/mL (footnote); PBS control 28.
Protocol: A solution of 2,2′-azobis-(2-amidinopropane) dihydrochloride (AAPH, 0.5 M) was prepared in degassed distilled water and a β-carotene solution was prepared by centrifuging 10 mg of β-carotene in 10 mL of acetone followed by a one-fold dilution of the supernatant with the same solvent. β-carotene (60 μL) and 0.6% (w/v) phosphate buffered Tween 20 containing 0.3% (w/v) of linoleic acid (120 μL) were mixed with 935 μL of PBS in a quartz cuvette and incubated for 2 min at 50° C. 10 μL of sample solution (final assay concentration of 454 μg/mL) and AAPH (25 μL) were added into the cuvette and the reaction was monitored for 10 min using a spectrophotometer set at 452 nm. Quercetin was used as a reference antioxidant. Cuvette was maintained at 50° C. all times except when the measurement is being taken. Percentage β-carotene retention was calculated using the following equation: % β-carotene retention=100−[(Abs0 min−Abs5 min)*100 Abs0 min]
A short description of data set [4]: Stability determination of pyruvate (pyruvate loss with or without hydrogen peroxide). The data set is classed as physicochemical.

On to `O=c1c(O)c(-c2ccc(O)c(O)c2)oc2cc(O)cc(O)c12` [Quercetin], for which the “% inhibition of ABTS radical generation” value in data set [1] came out at 23%. Besides, the “% TRP (total reducing power)” value in data set [2] was 30%. Further, the “% TRP (ORAC in terms of β-Carotene retention)” value in data set [3] stood at 55%.

Consider `CC(=O)C(=O)O` [pyruvic acid], for which the pyruvate loss in data set [4] (with added hydrogen peroxide) turned out to be 11%; in data set [4] (without added hydrogen peroxide), 26%.

These data come from patent US20050037097A1, “PYRUVATE ENRICHED ONION EXTRACT” (priority 2003, published 2005).
